From US20020002144A1, “Methods and compositions for bisubstrate inhibitors of acetyltransferases” (The Government of the United States of America, Department …, priority 1999, published 2002)

Assays:
rat pinealocytes [1] = assay: Cytotoxicity to pinealocytes (response to norepinephrine after wash out); format: cell-based; conditions: 18 hour treatment with 0.5 μM, medium changed, then norepinephrine
Method: (§1) Pineal cell preparation and treatment: Pinealocytes were prepared from rat pineal glands by trypsinization as previously described (10). The cells were suspended in Dulbecco's modified Eagle medium (DMEM) containing 10% fetal calf serum and maintained (37° C.) for 18 h in a gas mixture of 95% air and 5% CO2. During this 18 hour period, some cells were treated, as indicated in Table 2 experiment 2, in aliquots of 50,000 cells/300 μl and washed prior to addition of fresh medium and further treatment. In some cases, as in Table 3, experiment 1, cells were not aliquoted until after 18 hours of control incubation and in these cases, aliquots of cells (50,000 cells/300 μl) were prepared and treated with drugs. Drugs were prepared in 100×concentrated solutions in water or dimethyl sulfoxide. The duration of the drug treatment was 5 h.
The effect of an 18 hour treatment with 0.5 μM N-bromoacetyltryptamine was examined. Following the 18 hour treatment, the medium was changed and fresh medium was added. Following this treatment, cells responded to norepinephrine treatment with an increase in melatonin production and AANAT activity.

AANAT [2] = molecular target: T1, AANAT (Rattus norvegicus, UniProt Q64666); assay: AANAT activity in treated pinealocytes; format: cell-based; conditions: Experiment 2
T1 construct: Pinealocytes were prepared from rat pineal glands by trypsinization; endogenous in cells; host or cells: primary pinealocytes from male Sprague-Dawley rats
Method: AANAT assay: The specific activity of the AANAT preparation was determined from measurement of the activity of the enzyme and amount of protein in a preparation. Activity was assayed by incubating the enzyme with ^3H-acetyl CoA (0.5 mM, 4 μCi/μmole) and tryptamine hydrochloride (1 mM), bovine serum albumin (0.5 mg/ml) and the enzyme in total volume of 100 μl of sodium phosphate (0.1M, pH 6.8) (6,7). The incubation was terminated by extracting the product ^3H-acetyltryptamine with chloroform (1 ml). The chloroform phase was washed sequentially with 200 μl of the sodium phosphate buffer and twice with 200 μl of NaOH (1N). The radioactivity in 400 μl of the chloroform phase was determined following evaporation of chloroform under vacuum. Protein was measured by optical density at 280 nm and by dye binding using the Brandford procedure. Pineal cell preparation and treatment: Pinealocytes were prepared from rat pineal glands by trypsinization as previously described (10). The cells were suspended in Dulbecco's modified Eagle medium (DMEM) containing 10% fetal calf serum and maintained (37° C.) for 18 h in a gas mixture of 95% air and 5% CO2. During this 18 hour period, some cells were treated, as indicated in Table 2 experiment 2, in aliquots of 50,000 cells/300 μl and washed prior to addition of fresh medium and further treatment. In some cases, as in Table 3, experiment 1, cells were not aliquoted until after 18 hours of control incubation and in these cases, aliquots of cells (50,000 cells/300 μl) were prepared and treated with drugs. Drugs were prepared in 100×concentrated solutions in water or dimethyl sulfoxide. The duration of the drug treatment was 5 h. At the end of treatment period, cells were collected by centrifugation (2 min, 10,000 g) and the medium was removed and stored. Cell pellets were frozen immediately in dry ice and stored at −80° C. until determination of AANAT activity. The supernatant collected was used for determination of melatonin.

AANAT [3] = molecular target: T2, AANAT (Ovis aries, UniProt Q29495); assay: AANAT assay with aqueous extracts of AANAT/CoA/N-bromoacetyltryptamine pre-incubations; format: biochemical; conditions: 20 μl extract in 100 μl AANAT assay
T2 construct: made in house
Method: AANAT assay: The specific activity of the AANAT preparation was determined from measurement of the activity of the enzyme and amount of protein in a preparation. Activity was assayed by incubating the enzyme with ^3H-acetyl CoA (0.5 mM, 4 μCi/μmole) and tryptamine hydrochloride (1 mM), bovine serum albumin (0.5 mg/ml) and the enzyme in total volume of 100 μl of sodium phosphate (0.1M, pH 6.8) (6,7). The incubation was terminated by extracting the product ^3H-acetyltryptamine with chloroform (1 ml). The chloroform phase was washed sequentially with 200 μl of the sodium phosphate buffer and twice with 200 μl of NaOH (1N). The radioactivity in 400 μl of the chloroform phase was determined following evaporation of chloroform under vacuum. Protein was measured by optical density at 280 nm and by dye binding using the Brandford procedure.
Incubations to study formation of CoA-S-N-acetyltryptamine.—Bromoacetyltryptamine (20 μM) was incubated (37° C., 30 min) with coenzyme A (20 μM), bovine serum albumin (0.5 mg/ml) and the enzyme in a total volume of 100 μl of Tris HCl (50 mM, pH 7.4) and the incubation was terminated by adding chloroform (1 ml) and vortexing. The aqueous phase was then removed. Samples of the aqueous phase from each chloroform extraction were analyzed by mass spectroscopy and for inhibitory activity in an AANAT assay.
This conclusion was supported by the biochemical evidence from experiments in which the aqueous extracts analyzed above were incubated with a fresh preparation of AANAT in an AANAT assay. Inhibitory activity of the extract was determined.

rat pinealocytes [4] = assay: Melatonin production by norepinephrine-treated pinealocytes (radioimmunoassay of medium); format: cell-based; conditions: for Melatonin production: Experiment 1, 18-24 hours; for Melatonin (18-23 hr): Experiment 2
Method: as §1
At the end of treatment period, cells were collected by centrifugation (2 min, 10,000 g) and the medium was removed and stored. Cell pellets were frozen immediately in dry ice and stored at −80° C. until determination of AANAT activity. The supernatant collected was used for determination of melatonin.
Melatonin analysis. Melatonin in the medium was determined by a radioimmunoassay as described previously (11,12). Briefly, melatonin was extracted from 300 μl of medium by vortexing with 1 ml of methylene chloride. After centrifugation, 700 μl of the organic phase was collected and evaporated to dryness. The residue was reconstituted in 500 μl of assay buffer (0.01M phosphate buffer, pH 7.5, containing 0.1% gelatin).
An ultraspecific melatonin antiserum from CIDtech Research Inc. (Mississauga, Ontario Canada) was used for the melatonin radioimmunoassay. Aliquots of extracted melatonin samples were diluted to 500 μl with assay buffer. 100 μl of melatonin antiserum and 50 μl of [^3H]melatonin (˜2000 cpm, at 45.5 Ci/mmol) were then added. After mixing, the tubes were incubated at 4° C. overnight. To separate the bound from the free [^3H] melatonin, 650 μl of saturated ammonium sulphate were added and the samples were incubated at 4° C. for 1 hr. The bound [^3H]melatonin was collected in a protein pellet by centrifugation (4,000 g×30 min) and re-dissolved in 550 μl of deionized water. 500 μl was then used for scintillation counting. Both inter- and intra-assay variability were less than 10%.
N-Bromoacetyltryptamine treatment of rat pinealocytes inhibits melatonin production. Experiments were conducted to determine if N-bromoacetyltryptamine could inhibit production of melatonin. This was done using rat pinealocytes in which melatonin production was elevated by treatment with norepinephrine, which acts by elevating the activity of AANAT.

[5] = system: arylamine N-acetyltransferase (E.C. 2.3.1.5); conditions: adverse reactions reported to result from acetylation of the drug; cited from earlier work
[6] = Treatment I BAT (0.5 μM) (0-18 hr), wash out, Treatment II NE (10 μM) (18-23 hr)
[7] = Treatment I DMSO (0-18 hr), Treatment II NE 10 μM + BAT (0.5 μM) (18-23 hr)
[8] = Treatment I DMSO (0-18 hr), Treatment II NE 10 μM (18-23 hr)

T1 sequence (Q64666 whole entry): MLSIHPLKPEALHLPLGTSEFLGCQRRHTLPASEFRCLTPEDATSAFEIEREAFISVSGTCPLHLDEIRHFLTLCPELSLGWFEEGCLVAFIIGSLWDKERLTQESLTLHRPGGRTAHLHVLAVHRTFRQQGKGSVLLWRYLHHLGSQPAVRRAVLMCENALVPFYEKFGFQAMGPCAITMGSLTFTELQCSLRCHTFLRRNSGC
T2 sequence (Q29495 whole entry): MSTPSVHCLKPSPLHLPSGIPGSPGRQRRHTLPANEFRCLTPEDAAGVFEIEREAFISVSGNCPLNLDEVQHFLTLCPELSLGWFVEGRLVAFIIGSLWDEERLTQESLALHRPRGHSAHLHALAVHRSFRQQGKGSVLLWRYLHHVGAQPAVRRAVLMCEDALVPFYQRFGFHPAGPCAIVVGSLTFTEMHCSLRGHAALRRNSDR

O=C(CBr)NCCc1c[nH]c2ccccc12 [N-Bromoacetyltryptamine]
cytotoxicity (rat pinealocytes [1]): not cytotoxic
AANAT (23 hr) (AANAT [2]; [6]): 0.86 ± 0.06 μmol/h/105 cells
AANAT (23 hr) (AANAT [2]; [7]): 0.48 ± 0.05 μmol/h/105 cells
remaining activity at 20 µM (AANAT [3]; Complete pre-assay reaction (AANAT + CoA 20 μM + N-bromoacetyltryptamine 20 μM, 37° C., 30 min), read-out: AANAT Activity (% of control)): 38%
AANAT Activity (% of control) (AANAT [3]; pre-assay reaction Minus CoA): 107%
AANAT Activity (% of control) (AANAT [3]; pre-assay reaction Zero time (not incubated)): 110%
AANAT Activity (% of control) (AANAT [3]; pre-assay reaction with Boiled enzyme): 104%
production of melatonin (rat pinealocytes [4]; 5 hour treatment with 0.1, 0.5 or 1 μM, norepinephrine-treated rat pinealocytes): markedly reduced
Melatonin production (rat pinealocytes [4]; N-Bromoacetyltryptamine (1 μM) alone): 0.65 ± 0.05 pmol/100,000 cells
Melatonin production (rat pinealocytes [4]; Norepinephrine (10 μM) + N-Bromoacetyltryptamine (0.1 μM)): 4.55 ± 0.04 pmol/100,000 cells
Melatonin production (rat pinealocytes [4]; Norepinephrine (10 μM) + N-Bromoacetyltryptamine (1 μM)): 0.95 ± 0.25 pmol/100,000 cells
Melatonin (18-23 hr) (rat pinealocytes [4]; Treatment I BAT (0.5 μM) (0-18 hr), wash out, Treatment II Control (18-23 hr)): 1.78 ± 0.14 pmole/10^5 cells
Melatonin (18-23 hr) (rat pinealocytes [4]; [6]): 12.22 ± 2.90 pmole/10^5 cells
Melatonin (18-23 hr) (rat pinealocytes [4]; [7]): 1.88 ± 0.82 pmole/10^5 cells

NC[C@H](O)c1ccc(O)c(O)c1 [Norepinephrine, reference compound]
AANAT (23 hr) (AANAT [2]; [8]): 0.89 ± 0.10 μmol/h/105 cells
Melatonin production (rat pinealocytes [4]; Norepinephrine (10 μM) alone): 12.43 ± 2.00 pmol/100,000 cells
Melatonin (18-23 hr) (rat pinealocytes [4]; [8]): 10.44 ± 1.07 pmole/10^5 cells

NNC(=O)c1ccncc1 [Isoniazid]
Adverse Drug Reaction Reported [5]: Peripheral neuropathy, liver

Nc1ccc(S(=O)(=O)c2ccc(N)cc2)cc1 [Dapsone]
Adverse Drug Reaction Reported [5]: Hematological

NNc1nncc2ccccc12 [Hydralazine]
Adverse Drug Reaction Reported [5]: Lupus, uncontrolled hypertension

CCN(CC)CCNC(=O)c1ccc(N)cc1 [Procainamide]
Adverse Drug Reaction Reported [5]: Lupus, uncontrolled arrhythmias

Cc1cc(C)nc(NS(=O)(=O)c2ccc(N)cc2)n1 [Sulfamethazine]
Adverse Drug Reaction Reported [5]: Hematological/Gastrointestinal

CCC1(c2ccc(N)cc2)CCC(=O)NC1=O (centres unmarked) [Aminoglutethamide]
Adverse Drug Reaction Reported [5]: Adrenal insufficiency
